According to patent US10457691B2, “Macrocyclic kinase inhibitors and uses thereof” (Dana-Farber Cancer Institute, Inc., priority 2014, dated 2019):

Columns and labels:
Type in all cases: biochemical
Conditions in all cases: read-out: Activity of the protein kinase when treated with compound I-1 (% control)
[1] = target: EF2K (Homo sapiens, UniProt O00418); assay: Protein kinase assay ([γ-32P] ATP), EF2K
Procedure: (§1) In another set of experiments, the activities of the compounds described herein against various protein kinases were determined according to the methods reported in Hastie et al., Nature Protocols, 2006, 1, 968-971.
(§2) Enzyme dilution buffer. This buffer consisted of 50 mM Tris-HCl, pH 7.5, 0.1 mM EGTA, 1 mg ml^−1 bovine serum albumin and 0.1% (vol/vol) 2-mercaptoethanol.
(§3) 10× concentrated assay buffer. An assay buffer of 500 mM Tris-HCl, pH 7.5, 1 mM EGTA, and 100 mM magnesium acetate was used for assay of a wide variety of protein kinases. In some experiments, other cofactors were included (e.g., calcium ions and calmodulin were included for assay of calcium-calmodulindependent protein kinases).
(§4) 1 mM [γ-^32P] ATP. The specific activity of the [γ-^32P] ATP solution was 1×10^5 to 1×10^6 c.p.m. per nmol depending on what was needed to produce an optimal signal/noise ratio. […] To measure the concentration of ATP, a sample of such a stock solution was diluted to 20 μM, and the absorbance of the diluted sample was measured at 259 nm. The absorbance of a 20-μM stock solution of ATP at 259 nm was about 0.31. […] ATP to produce a radioactivity of 1×10^5 to 1×10^6 c.p.m. per nmol. […]
(§5) 13) Measure radioactivity in the samples by Cerenkov counting (e.g., without liquid scintillation fluid) in a liquid scintillation counter using a “^32P program”. […]

[2] = target: MST3 (Homo sapiens, UniProt Q9Y6E0); assay: Protein kinase assay ([γ-32P] ATP), MST3
MST3, sequence (Q9Y6E0 whole entry): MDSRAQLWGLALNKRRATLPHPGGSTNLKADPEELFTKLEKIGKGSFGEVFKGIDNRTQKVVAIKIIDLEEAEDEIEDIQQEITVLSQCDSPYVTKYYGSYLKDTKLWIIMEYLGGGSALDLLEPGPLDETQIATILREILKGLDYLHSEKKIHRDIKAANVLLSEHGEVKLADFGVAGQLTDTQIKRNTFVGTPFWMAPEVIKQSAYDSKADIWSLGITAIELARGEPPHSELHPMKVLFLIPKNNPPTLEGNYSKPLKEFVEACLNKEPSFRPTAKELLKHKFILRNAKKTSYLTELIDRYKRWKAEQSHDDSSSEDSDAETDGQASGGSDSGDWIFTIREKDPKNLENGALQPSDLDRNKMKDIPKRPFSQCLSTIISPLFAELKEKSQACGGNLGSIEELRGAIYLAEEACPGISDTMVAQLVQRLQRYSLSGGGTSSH
Procedure: as §1, §2, §3, §4, §5

[3] = target: JNK1 (Homo sapiens, UniProt P45983); assay: Protein kinase assay ([γ-32P] ATP), JNK1
Procedure: as §1, §2, §3, §4, §5

[4] = target: MARK3 (Homo sapiens, UniProt P27448); assay: Protein kinase assay ([γ-32P] ATP), MARK3
MARK3, sequence (P27448 whole entry): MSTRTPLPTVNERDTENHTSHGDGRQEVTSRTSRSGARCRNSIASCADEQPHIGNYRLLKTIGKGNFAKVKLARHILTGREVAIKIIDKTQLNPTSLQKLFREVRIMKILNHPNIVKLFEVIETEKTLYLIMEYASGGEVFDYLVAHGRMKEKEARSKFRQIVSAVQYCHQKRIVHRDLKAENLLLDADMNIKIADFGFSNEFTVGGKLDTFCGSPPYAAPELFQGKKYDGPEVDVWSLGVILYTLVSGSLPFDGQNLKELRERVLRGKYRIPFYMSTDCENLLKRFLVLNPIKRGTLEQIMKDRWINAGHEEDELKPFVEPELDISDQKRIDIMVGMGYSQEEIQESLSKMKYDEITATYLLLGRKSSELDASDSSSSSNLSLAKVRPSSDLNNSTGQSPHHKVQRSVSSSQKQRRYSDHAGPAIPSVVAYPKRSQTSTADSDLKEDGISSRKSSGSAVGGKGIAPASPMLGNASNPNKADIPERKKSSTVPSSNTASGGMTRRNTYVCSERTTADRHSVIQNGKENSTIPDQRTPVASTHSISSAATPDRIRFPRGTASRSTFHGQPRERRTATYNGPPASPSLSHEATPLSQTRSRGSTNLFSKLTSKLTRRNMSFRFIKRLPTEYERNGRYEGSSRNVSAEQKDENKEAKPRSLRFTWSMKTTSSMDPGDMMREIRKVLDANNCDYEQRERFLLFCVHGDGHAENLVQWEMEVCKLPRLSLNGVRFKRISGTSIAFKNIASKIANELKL
Procedure: as §1, §2, §3, §4, §5

[5] = target: CK1γ2 (Homo sapiens, UniProt P78368); assay: Protein kinase assay ([γ-32P] ATP), CK1γ2
Procedure: as §1, §2, §3, §4, §5

[6] = target: CDK2-Cyclin A (Homo sapiens, UniProt P24941); assay: Protein kinase assay ([γ-32P] ATP), CDK2-Cyclin A
Procedure: as §1, §2, §3, §4, §5

[7] = target: SRPK1 (Homo sapiens, UniProt Q96SB4); assay: Protein kinase assay ([γ-32P] ATP), SRPK1
Procedure: as §1, §2, §3, §4, §5

[8] = target: RSK2 (Homo sapiens, UniProt P51812); assay: Protein kinase assay ([γ-32P] ATP), RSK2
RSK2, sequence (P51812 whole entry, species assumed): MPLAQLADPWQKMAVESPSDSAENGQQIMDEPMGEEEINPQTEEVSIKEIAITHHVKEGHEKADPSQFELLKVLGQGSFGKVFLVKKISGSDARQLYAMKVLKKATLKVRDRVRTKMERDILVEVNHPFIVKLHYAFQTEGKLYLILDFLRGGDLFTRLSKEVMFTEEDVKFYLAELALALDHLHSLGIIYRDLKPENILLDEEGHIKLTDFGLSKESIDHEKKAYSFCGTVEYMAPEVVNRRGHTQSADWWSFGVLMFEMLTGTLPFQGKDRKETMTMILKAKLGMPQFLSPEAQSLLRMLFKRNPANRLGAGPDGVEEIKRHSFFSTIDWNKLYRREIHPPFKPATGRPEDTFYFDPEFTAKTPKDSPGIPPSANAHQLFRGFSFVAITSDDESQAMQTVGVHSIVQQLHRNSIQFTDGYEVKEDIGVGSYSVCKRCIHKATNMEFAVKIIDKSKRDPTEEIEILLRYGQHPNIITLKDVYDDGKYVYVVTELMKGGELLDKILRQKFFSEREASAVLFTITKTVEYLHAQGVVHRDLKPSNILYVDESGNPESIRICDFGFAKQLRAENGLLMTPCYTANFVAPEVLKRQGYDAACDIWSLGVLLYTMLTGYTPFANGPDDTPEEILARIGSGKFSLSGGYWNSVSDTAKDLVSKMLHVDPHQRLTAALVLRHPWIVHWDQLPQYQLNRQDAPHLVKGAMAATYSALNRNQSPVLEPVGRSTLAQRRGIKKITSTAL
Procedure: as §1, §2, §3, §4, §5

[9] = target: IGF-1R (Homo sapiens, UniProt P08069); assay: Protein kinase assay ([γ-32P] ATP), IGF-1R
Procedure: as §1, §2, §3, §4, §5

[10] = target: ASK1 (Homo sapiens, UniProt Q99683); assay: Protein kinase assay ([γ-32P] ATP), ASK1
ASK1, sequence (Q99683 whole entry): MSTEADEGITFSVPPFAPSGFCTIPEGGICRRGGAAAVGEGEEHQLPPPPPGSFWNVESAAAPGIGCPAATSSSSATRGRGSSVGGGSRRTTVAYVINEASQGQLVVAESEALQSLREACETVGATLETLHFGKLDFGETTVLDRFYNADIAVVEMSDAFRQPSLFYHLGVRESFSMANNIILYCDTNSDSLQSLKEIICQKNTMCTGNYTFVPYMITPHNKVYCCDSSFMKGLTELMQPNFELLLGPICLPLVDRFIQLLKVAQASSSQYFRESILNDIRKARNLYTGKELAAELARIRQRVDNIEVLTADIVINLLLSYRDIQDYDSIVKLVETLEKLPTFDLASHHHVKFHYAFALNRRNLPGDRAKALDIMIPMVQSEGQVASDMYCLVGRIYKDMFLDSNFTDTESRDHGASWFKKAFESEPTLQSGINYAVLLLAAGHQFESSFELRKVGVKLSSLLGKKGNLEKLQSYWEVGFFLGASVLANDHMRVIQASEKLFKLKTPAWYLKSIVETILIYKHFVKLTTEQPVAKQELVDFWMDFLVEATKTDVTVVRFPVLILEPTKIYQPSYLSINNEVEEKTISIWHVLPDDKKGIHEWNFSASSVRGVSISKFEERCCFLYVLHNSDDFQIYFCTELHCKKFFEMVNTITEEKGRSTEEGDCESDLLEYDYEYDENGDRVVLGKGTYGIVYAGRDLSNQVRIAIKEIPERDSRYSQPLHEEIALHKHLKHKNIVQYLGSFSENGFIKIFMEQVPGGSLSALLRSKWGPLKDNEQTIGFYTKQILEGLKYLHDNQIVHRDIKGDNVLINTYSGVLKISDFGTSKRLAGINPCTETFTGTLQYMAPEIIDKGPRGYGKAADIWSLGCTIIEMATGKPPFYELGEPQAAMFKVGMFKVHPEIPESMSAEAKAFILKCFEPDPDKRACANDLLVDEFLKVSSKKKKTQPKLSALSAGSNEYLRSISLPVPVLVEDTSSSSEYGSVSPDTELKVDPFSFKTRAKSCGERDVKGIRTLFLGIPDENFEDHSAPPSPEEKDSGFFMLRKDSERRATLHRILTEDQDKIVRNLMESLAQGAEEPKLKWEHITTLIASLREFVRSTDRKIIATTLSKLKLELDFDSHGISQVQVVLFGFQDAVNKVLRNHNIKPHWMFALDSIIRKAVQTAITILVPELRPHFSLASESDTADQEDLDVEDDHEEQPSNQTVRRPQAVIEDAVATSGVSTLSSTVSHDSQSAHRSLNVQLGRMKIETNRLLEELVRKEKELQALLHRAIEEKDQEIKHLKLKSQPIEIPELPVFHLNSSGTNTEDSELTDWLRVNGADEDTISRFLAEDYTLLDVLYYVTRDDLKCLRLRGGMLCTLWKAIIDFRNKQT
Procedure: as §1, §2, §3, §4, §5

[11] = target: p38d MAPK (Homo sapiens, UniProt O15264); assay: Protein kinase assay ([γ-32P] ATP), p38d MAPK
p38d MAPK, sequence (O15264 whole entry): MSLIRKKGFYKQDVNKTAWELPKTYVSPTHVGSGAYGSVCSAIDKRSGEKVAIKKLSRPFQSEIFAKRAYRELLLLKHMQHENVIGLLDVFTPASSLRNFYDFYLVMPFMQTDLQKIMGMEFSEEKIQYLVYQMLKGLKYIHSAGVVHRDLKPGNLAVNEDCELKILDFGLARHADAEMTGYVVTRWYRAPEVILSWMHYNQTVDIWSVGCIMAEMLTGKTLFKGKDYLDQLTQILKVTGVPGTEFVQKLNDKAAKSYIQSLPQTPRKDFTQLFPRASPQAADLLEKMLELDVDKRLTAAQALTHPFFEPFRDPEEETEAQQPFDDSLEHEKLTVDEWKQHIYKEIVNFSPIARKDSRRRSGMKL
Procedure: as §1, §2, §3, §4, §5

[12] = target: MPSK1 (Homo sapiens, UniProt O75716); assay: Protein kinase assay ([γ-32P] ATP), MPSK1
Procedure: as §1, §2, §3, §4, §5

[13] = target: TLK1 (Homo sapiens, UniProt Q9UKI8); assay: Protein kinase assay ([γ-32P] ATP), TLK1
TLK1, sequence (Q9UKI8 whole entry, species assumed): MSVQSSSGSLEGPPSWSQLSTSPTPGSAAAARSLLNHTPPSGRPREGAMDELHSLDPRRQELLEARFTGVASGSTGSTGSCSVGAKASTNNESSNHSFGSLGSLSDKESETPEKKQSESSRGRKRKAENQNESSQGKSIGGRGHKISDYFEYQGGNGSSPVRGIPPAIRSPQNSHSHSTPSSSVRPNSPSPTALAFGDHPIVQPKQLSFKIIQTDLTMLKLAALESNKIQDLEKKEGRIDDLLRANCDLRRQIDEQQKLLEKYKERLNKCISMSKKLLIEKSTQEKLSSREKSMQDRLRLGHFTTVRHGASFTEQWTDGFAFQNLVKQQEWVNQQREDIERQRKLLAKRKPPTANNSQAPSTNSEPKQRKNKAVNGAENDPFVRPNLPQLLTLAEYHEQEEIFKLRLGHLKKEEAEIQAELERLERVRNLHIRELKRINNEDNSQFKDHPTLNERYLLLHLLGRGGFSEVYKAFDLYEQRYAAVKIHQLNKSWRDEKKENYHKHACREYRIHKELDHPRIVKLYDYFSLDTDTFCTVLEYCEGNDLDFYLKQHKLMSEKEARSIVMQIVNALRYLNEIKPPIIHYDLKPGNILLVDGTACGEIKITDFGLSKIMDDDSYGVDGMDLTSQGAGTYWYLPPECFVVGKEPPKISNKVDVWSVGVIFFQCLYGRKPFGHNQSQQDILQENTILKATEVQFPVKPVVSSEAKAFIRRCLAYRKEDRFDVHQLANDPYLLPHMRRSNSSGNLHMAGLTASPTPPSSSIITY
Procedure: as §1, §2, §3, §4, §5

[14] = target: SGK1 (Homo sapiens, UniProt O00141); assay: Protein kinase assay ([γ-32P] ATP), SGK1
SGK1, sequence (O00141 whole entry, species assumed): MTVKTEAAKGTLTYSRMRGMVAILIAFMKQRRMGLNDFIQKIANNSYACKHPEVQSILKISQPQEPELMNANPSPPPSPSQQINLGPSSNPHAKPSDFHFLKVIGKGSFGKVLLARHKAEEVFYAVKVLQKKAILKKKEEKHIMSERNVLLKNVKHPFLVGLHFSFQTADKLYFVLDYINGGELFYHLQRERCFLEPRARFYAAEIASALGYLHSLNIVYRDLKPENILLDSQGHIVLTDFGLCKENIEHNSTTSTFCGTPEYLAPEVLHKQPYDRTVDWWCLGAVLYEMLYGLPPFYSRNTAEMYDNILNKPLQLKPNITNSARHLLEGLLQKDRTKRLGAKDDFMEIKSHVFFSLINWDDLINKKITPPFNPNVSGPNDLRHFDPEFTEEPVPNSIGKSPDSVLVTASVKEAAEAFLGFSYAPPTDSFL
Procedure: as §1, §2, §3, §4, §5

[15] = target: CLK2 (Homo sapiens, UniProt P49760); assay: Protein kinase assay ([γ-32P] ATP), CLK2
Procedure: as §1, §2, §3, §4, §5

[16] = target: S6K1 (Homo sapiens, UniProt P23443); assay: Protein kinase assay ([γ-32P] ATP), S6K1
Procedure: as §1, §2, §3, §4, §5

[17] = target: MINK1 (Homo sapiens, UniProt Q8N4C8); assay: Protein kinase assay ([γ-32P] ATP), MINK1
Procedure: as §1, §2, §3, §4, §5

[18] = 0.1 μM of compound I-1, DMSO control = 100%
[19] = 1 μM of compound I-1, DMSO control = 100%

## Cc1cccc(C)c1NC(=O)N1C/C=C\COc2cccc(c2)Nc2cc1ncn2 [Compound I-1]
[1]; [18]
  remaining activity at 0.1 µM: 103%
[1]; [19]
  remaining activity at 1 µM: 83%
[2]; [18]
  remaining activity at 0.1 µM: 91%
[2]; [19]
  remaining activity at 1 µM: 87%
[3]; [18]
  remaining activity at 0.1 µM: 93%
[3]; [19]
  remaining activity at 1 µM: 72%
[4]; [18]
  remaining activity at 0.1 µM: 90%
[4]; [19]
  remaining activity at 1 µM: 67%
[5]; [18]
  remaining activity at 0.1 µM: 96%
[5]; [19]
  remaining activity at 1 µM: 100%
[6]; [18]
  remaining activity at 0.1 µM: 107%
[6]; [19]
  remaining activity at 1 µM: 84%
[7]; [18]
  remaining activity at 0.1 µM: 100%
[7]; [19]
  remaining activity at 1 µM: 74%
[8]; [18]
  remaining activity at 0.1 µM: 98%
[8]; [19]
  remaining activity at 1 µM: 81%
[9]; [18]
  remaining activity at 0.1 µM: 109%
[9]; [19]
  remaining activity at 1 µM: 61%
[10]; [18]
  remaining activity at 0.1 µM: 117%
[10]; [19]
  remaining activity at 1 µM: 96%
[11]; [18]
  remaining activity at 0.1 µM: 110%
[11]; [19]
  remaining activity at 1 µM: 73%
[12]; [18]
  remaining activity at 0.1 µM: 110%
[12]; [19]
  remaining activity at 1 µM: 89%
[13]; [18]
  remaining activity at 0.1 µM: 112%
[13]; [19]
  remaining activity at 1 µM: 92%
[14]; [18]
  remaining activity at 0.1 µM: 96%
[14]; [19]
  remaining activity at 1 µM: 100%
[15]; [18]
  remaining activity at 0.1 µM: 100%
[15]; [19]
  remaining activity at 1 µM: 90%
[16]; [18]
  remaining activity at 0.1 µM: 105%
[16]; [19]
  remaining activity at 1 µM: 83%
[17]; [18]
  remaining activity at 0.1 µM: 46%
[17]; [19]
  remaining activity at 1 µM: 9%
